Measurements taken from patent US20230365570A1, “COMPOUNDS WITH GLUCOCORTICOID SPARING EFFECTS AND USES THEREOF” (The Regents of the University of California, priority 2020, published 2023).

Legend:
[1] = tested on: THP-1 cells; experiment: IL-1ß stimulated CXCL8 release by THP-1 cells; assay type: cell-based, human; details: IL-1ß 2 ng/ml, overnight (FIG. 3C)
Protocol: (§1) THP-1 cells (10^5 cells/200 μL/well) and RA FLS (104/200 μL/well) were plated in 96 well plates and pre-treated with compound or vehicle for 1 h and then stimulated with either LPS (10 ng/ml), 1L-1ß (2 ng/ml) or TNF (2 ng/ml for THP-1 and 1 ng/ml for RA FLS). After 18 h of incubation, supernatants were collected and the levels of cytokines and chemokines in the culture supernatants were measured by ELISA according to the manufacturer's protocols (R&D systems, Minneapolis, MN).
(§2) The lead compounds belonging to chemotypes 1, 3, and 5 were tested for potency in suppressing chemokine and cytokine production by THP-1 cells in the presence of different inflammatory stimuli. The production of CXCL8 induced by either LPS (10 ng/ml), IL-1ß (2 ng/ml), or TNF (2 ng/ml) and TNF induced by IL-1ß (2 ng/ml) was assessed using serially diluted compounds. The compounds except 1-2 reduced the level of CXCL8 production stimulated by LPS in a dose dependent manner (FIG. 3A). However, the compounds from chemotype 5 enhanced CXCL8 release by THP-1 cells when stimulated with IL-111, or TNF (FIGS. 3B, C). […] The 1Cs0 for 1-1, 1-2 and 3-1 for IL-1ß stimulated CXCL8 release included 400, 1770, and 2020 nM, respectively, (FIG. 3C).

[2] = tested on: THP-1 cells; experiment: Combination and synergy of compounds with DEX, CXCL8 release by TNF stimulated THP-1 cells; assay type: cell-based, human
Protocol: Drug synergy analysis was performed using lsobologram plots which were calculated according to reported procedures to compute IC50 and determine synergism. IC50 is computed from the median effect equation. Synergism analysis is carried out using the Combination index (Cl)-isobol method. Data analysis was performed using the CompuSyn software available on combisyn.com, Detailed methodology was used as described in a prior report. Briefly, the median-effect equation is computed to obtain the linear regression for the effect of inhibitors DEX and 1−1 as Fa/Fu=(D/D50)^m, where D is the dose; Fa and Fu is the fraction of the inhibition and uninhibited response by the dose D (Fa+Fu=1); D50 is the dose producing the median effect (i.e, IC50). The constant m determines the shape of the dose-effect curve. The median-effect equation in logarithmic form is log (Fa/Fu) =m log(D)−m log (D50) which essentially represents a linear relationship between log(Fa/Fu) and log(D). […] This is followed by Cl-isobol method to quantitatively assess the synergism between these inhibitor drugs. A combination index (Cl) is estimated from dose-effect data of single and combined drug treatments. A value of C; less than one indicates synergism; Cl=1 indicates additive effect; and Cl>1 indicates antagonism. Drug interaction (synergism or antagonism) is more pronounced the further a CI value is from 1. […] The doses Dx1 and Dx2 were estimated from the median effect equation above for single drug treatments. From the median effect equation, the estimated dose (i.e., D) necessary to produce the inhibition (i.e., Fa, Fu) obtained by the combination was calculated. The results are presented as a normalized isobolograrn. A point in the isobologram represents the effect of a drug(s) treatment.
To assess whether the remaining candidate compounds would provide additional benefit to a low dose of glucocorticoid, THP-1 cells were stimulated with TNF and treated them with serially diluted compounds and 100 nM DEX (FIGS. 4A-C). […] Next whether there was an additive or synergistic effect with these three compounds and DEX was formally addressed. […] The four CXCL8 levels below the maximum plateau were used to calculate an isobologram (FIG. 5D).

[3] = tested on: THP-1 cells; experiment: Cell viability by MTT assay in THP-1 cells; assay type: cell-based, human; details: for Cellular viability (% Viability compared to Veh): 10 uM (FIG. 8B)
Protocol: Two types of tetrazolium were used for viability assays. […] After 18 h of incubation, 0.5 mg/ml 3[4,5-dimethylthiazol-2-yl]-2,5-dipheyl tetrazolium bromide (MTT; Thermo Fisher Scientific) in assay media was added to each well at a final concentration of (0.5 mg/ml) and further incubated for 4-6 h. The absorbances at 570 and 650 nm were measured by a Tecan Infinite M200 plate reader, For RA FLS, the cells were dispersed into 96-well flat bottom plates (104/200 μL/well) and incubated overnight. The next day, RA FLS were treated with 5 μM of each compound for 18 h of incubation. Ten μl of WST-8 [2-(2-methoxy-4-nitrophenyl)-3-(4-nitrophenyl)-5-(2,4-disulfophewnyl)-2H-tetrazolium, monosodium salt] solution was added to each well and the cells were further incubated for 2-4 h. The absorbance was measured at 450 nm with Bio-Rad iMark plate reader (Bio-Rad Laboratories Inc., Hercules, CA, Unites States).

[4] = tested on: THP-1 cells; experiment: CXCL8 production by LPS stimulated THP-1 cells (ELISA); assay type: cell-based, human; details: LPS 10 ng/ml, purchased compound, mean LPS CXCL8 201.1 pg/ml = 100%
Protocol: as §1
The 122 hit compounds underwent additional screening and were evaluated for their effects on cell viability and the ability to suppress production of an NF-κB-associated chemokine, CXCL8 (IL-8) by LPS stimulated THP-1 cells (FIG. 2D). The cells were also examined for viability after 24 h of stimulation by MTT assay (FIG. 2E).
Three of the eleven chemotypes were excluded based on the potential for them to be Michael acceptors, In many cases α,β-unsaturated carbonyls such as those found in these chemotypes can form adducts with thiols, especially under physiological conditions (pH=6-8), reducing the in vivo efficacy. Also, Michael acceptors are often […] IKKß inhibitors and thereby inhibit NF-KB response. […]

[5] = tested on: THP-1 cells; experiment: IL-1ß stimulated TNF release by THP-1 cells; assay type: cell-based, human
Protocol: as §1, §2

[6] = tested on: THP-1 cells; experiment: TNF stimulated CXCL8 release by THP-1 cells; assay type: cell-based, human; details: TNF 2 ng/ml, overnight (FIG. 3B)
Protocol: as §1, §2

[7] = tested on: murine bone marrow-derived dendritic cells (BMDCs); experiment: TNF-α and IP-10 induction by TLR and STING ligands in murine BMDCs; assay type: cell-based, mouse; details: BMDCs from WT and Tmem173-/- mice (FIGS. 9A-D)
Protocol: (§3) FIGS. 9A-9F show the partial STING dependent activity of nitrofuranylamide compounds 4, 5 and 6 and inhibition of TLR pathways.
(§4) Since the synthesized compounds were identified via assays in human cells, there was interest in verifying the potency of these compounds in murine cells. Compounds were incubated with murine bone marrow-derived dendritic cells (BM DCs) obtained from wild-type (WT) mice and STING null (Tmem173^−/−) mice as STING had been reported as the target of other nitrofuranylamides. […] To compare these compounds, the IC50 values of these compounds were assessed in dose titration studies.

[8] = tested on: mBMDCs; experiment: IFNβ induced by DMXAA in mBMDCs; assay type: cell-based, mouse; details: for IFNβ induced by DMXAA: mBMDCs (FIG. 9F)
Protocol: as §3, §4

[9] = tested on: mice; experiment: K/BxN serum induced arthritis and allodynia in mice; assay type: in vivo, mouse
Protocol: FIGS. 10A-10D show the in vivo activity of compound 5 in WT and STING knock-out Tmem173^−/− mice. Mice were induced with K/B×N serum on days 0 and 2 to have arthritis and related pain. Compound 5 was administered (750 nmol) IP BID on days 0-5. […] (B) These effects of compound 5 are not seen in similarly treated Tmem173−/− mice. Mechanical allodynia is measured with monofilaments in a von Frey assay and increase in pain perception by the animal is recorded as a drop in the threshold. *P<0.0001 by two-way ANOVA.

[10] = tested on: NF-κB; experiment: NF-κB activation assay in LPS stimulated CellSensor NF-κB-bla THP-1 reporter cells; assay type: cell-based, human; details: 5 h and 16 h time points
Protocol: In the presence of lactamase, CCF4 was enzymatically cleaved and excitation at 409 nm produced a blue fluorescence signal (at 450 nm), The CellSensor® NF-κB-bla THP-1 cells were dispersed in 96-well plates (5×10^4 cells/200 μL/well) and incubated for 4 h, Then the cells were treated with 5 μM of each compound and 10 ng/ml of LPS for 5 or 12 h in 5% CO2 at 37° C. After incubation, the ß-lactamase substrate mixture (prepared according to the manufacturer's protocol) was added to each well. Plates were incubated at room temperature in the dark for 2 h. Fluorescence was measured on a Tecan Infinite M200 plate reader (Tecan, Mannedorf, Switzerland) at an excitation wavelength of 405 nm and emission wavelengths of 465 and 535 nm. Emission ratios are calculated by dividing values from emission wavelength of 465 nm by those from emission wavelength of 535 nm, The response ratio was calculated as follows [(emission ratio of a test well)/average emission ratio of wells with vehicle (0.5% DMSO)] and values were normalized to the LPS control treated wells [response ratio of the compound/response ratio of LPS].
Using LPS as a primary inflammatory stimulus the effect of these compounds on NF-κB activity was evaluated at two time points to profile the kinetics of their suppression.

[11] = WT mice, 750 nmoles IP BID for 6 days

Row | Compound | Cellular viability (% Viability compared to Veh) [3] | mIP-10 production induced by TLR4 (LPS), TLR7 (1V270) and STING (DMXAA) ligands [7] | mTNF-a production induced by TLR4 (LPS), TLR7 (1V270) and STING (DMXAA) ligands [7] | IFNβ induced by DMXAA [8] | TNF release when stimulated with IL-1ß ([5]; THP-1 cells) | further results
1 | CCCCNc1ncnc2c1cnn2-c1ccc(C)cc1C [Compound 1-2] |  |  |  |  |  | IC50 [1]: 1.77 µM; Effect of addition of DEX on CXCL8 production ([2]; TNF 2 ng/ml stimulated THP-1 cells, serially diluted compound plus 100 nM DEX (FIGS. 4A-C)): only effective at the lower doses; Synergy with DEX, isobologram of potency ratios for CXCL8 ([2]; TNF stimulated THP-1 cells, compound and DEX titrated at same molarity (FIG. 5D)): modestly synergistic; % Cellular Viability (Purchased) ([3]; purchased compound): 100.1%; CXCL8 production. Relative to LPS (purchased) [4]: 70.1%; IC50 ([5]; THP-1 cells, IL-1ß 2 ng/ml, overnight (FIG. 3D)): 2.77 µM; IC50 [6]: 4.13 µM
2 | CCOc1ccc(NC(=O)c2ccc([N+](=O)[O-])o2)cc1 [Compound 4] | approximately 100% | inhibited | inhibited | Dose-dependent inhibition | Dose-dependent inhibition | 
3 | O=C(Nc1cccc(C(F)(F)F)c1)c1ccc([N+](=O)[O-])o1 [Compound 5] | approximately 100% | inhibited | inhibited | Dose-dependent inhibition | Dose-dependent inhibition | Pain or swelling in Tmem173-/- mice ([9]; Tmem173-/- mice, 750 nmol IP BID): no statistically significant effect; Acute inflammation in the ankle (ankle thickness) [9, 11]: modest effect; Mechanical allodynia (von Frey filaments) [9, 11]: significantly reduced; Cytokine inhibition IC50, mouse cell studies ([8]; mBMDCs stimulated with DMXAA, IFNβ (FIG. 9F)): nanomolar (nM) range; Cytokine inhibition IC50, human cell studies ([5]; THP-1 cells stimulated with IL-1β, TNF-a (FIG. 9E)): nanomolar (nM) range
4 | O=C(Nc1cc([N+](=O)[O-])ccc1Cl)c1ccc([N+](=O)[O-])o1 [Compound 6] | approximately 100% | inhibited | inhibited | Dose-dependent inhibition | Dose-dependent inhibition | 
5 | C[C@@H]1C[C@H]2[C@@H]3CCC4=CC(=O)C=C[C@]4(C)[C@@]3(F)[C@@H](O)C[C@]2(C)[C@@]1(O)C(=O)CO [DEX, dexamethasone, reference compound] |  |  |  |  |  | IC50 ([2]; Homo sapiens, TNF stimulated THP-1 cells, single agents (FIG. 5A), read-out: IC50 for TNF stimulated CXCL8 release (titration with DEX)): 0.3 µM
6 | NC(=O)Nc1sc(-c2ccc(F)cc2)cc1C(N)=O [UTC, 5-(4-fluorophenyl)-2-ureidothiophene-3 carboxylic acid amide] |  |  |  |  |  | Inhibition of NF-κB activity [10]: inhibited NF-κB activity at both time points
7 | polymyxin B |  |  |  |  |  | Inhibition of NF-κB activity [10]: suppressed NF-κB activity at both timepoints
